Marks after values point to notes of the source that are not given here. Blank lines part the entries; values can stand above or below the molecule they belong to.
Columns and labels:
[1] = system: hepatic CYP2E1; experiment: hepatic CYP2E1 protein expression after AOM, Western blot of liver microsomes
Method: AT2 receptor antagonist PD123,319 treatment (15 mg/kg/12 h, gavage administration, and 50 μg/ml in drinking tap water) was initiated 3 h prior to the AOM treatment. The liver was dissected out and the microsomal fractions were subjected to SDS-polyacrylamide gel electrophoresis followed by immunoblotting with anti-human CYP2E1 antibodies.
AT2 receptor blocker PD123319 treatment (15 mg/kg/12 h, gavage administration and 50 μg/ml in drinking tap water) was initiated 3 h prior to the AOM treatment. The control group for the AOM treatment received saline. Mice for the short term study were sacrificed 6 h or 24 h after AOM treatment. […] The remaining tissues were frozen in liquid nitrogen and stored at −80° C.
Tissues were individually homogenized by a Polytron homogenizer in three volumes of 1 mM Tris-HCl buffer, pH 7.5, containing 1 mM EDTA, 0.25 M sucrose and protease inhibitor cocktail. The supernatant from 10,000× g centrifugation of the homogenate for 15 min was further centrifuged at 100,000× g for 1 h. The microsomal membranes were suspended in 100 mM NaH2PO4, pH 7.4, 10 mM MgCl2, 20% glycerol, and protease inhibitor cocktail, and 25 μg of the membrane protein was subjected to Western blot analysis.
The liver microsomal membranes were lysed with 0.5 ml lysis buffer (10 mM Tris-HCl (pH 7.4), 1% SDS). After sonication, the lysate was boiled for 5 min. […]

[2] = chronic administration, 30 mg/kg/day, rats; cited from earlier work
[3] = molecular target: T1, AT2 receptor (Mus musculus, UniProt P35374); conditions: read-out: IC50 for the inhibition of ligand-receptor binding; cited from earlier work
T1 sequence (P35374 1-363): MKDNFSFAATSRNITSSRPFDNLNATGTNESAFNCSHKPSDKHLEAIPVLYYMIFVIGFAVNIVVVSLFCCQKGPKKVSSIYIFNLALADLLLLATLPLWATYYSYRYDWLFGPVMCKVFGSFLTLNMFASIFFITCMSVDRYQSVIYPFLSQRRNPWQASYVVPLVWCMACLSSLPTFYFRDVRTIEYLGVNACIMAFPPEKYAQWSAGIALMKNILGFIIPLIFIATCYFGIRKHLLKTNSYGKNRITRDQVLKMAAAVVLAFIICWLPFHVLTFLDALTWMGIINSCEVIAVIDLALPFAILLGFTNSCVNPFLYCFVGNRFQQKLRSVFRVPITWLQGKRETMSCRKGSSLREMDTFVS

[4] = system: colon polyp or adenocarcinoma; experiment: Example 1: course of oral PD123319 treatment of colon polyps and colorectal adenocarcinoma; type: in vivo
Method: PD123319, an angiotensin II receptor (AT2 receptor) antagonist, is available in 1-mg, 10-mg, 50-mg, 100-mg, 250 mg, 500 mg, and 1000 mg tablets for oral administration and in 1-mg, 10-mg, 50-mg, 100-mg, 500 mg, 1000 mg, 5000 mg, and 10,000 mg suppositories for rectal administration.
PD123319 is indicated for the treatment of colorectal cancer including non-malignant polyps of the colon and colorectal adenocarcinoma. There are no known contradictions to treatment with PD123319.
A 12-20 week course of therapy yields a remission of adenocarcinoma (e.g., tumor number and/or volume) in greater than 79% of individuals that are diagnosed with at least one adenocarcinoma. Total dose per day is determined by severity (number and/or cancer stage) as assessed by a treating veterinarian or physician. A preferred course of treatment for a patient with colorectal polyps is 10-30 mg (medication) per kg (body weight) per day. A preferred course of treatment for a patient with colorectal adenocarcinoma is 20-30 mg/kg/day. In certain cases, a course of treatment for a patient with colorectal adenocarcinoma is 100 mg/kg/day administered orally or as a suppository. A preferred maintenance or chemoinhibitory course of therapy is typically 1.0 to 10 mg/kg. […]

[5] = system: O^6-methylguanine adduct in colon DNA; experiment: colonic O^6-methylguanine adduct level after AOM, immuno-slot-blot
Method: AT2 receptor blocker PD123319 treatment (15 mg/kg/12 h, gavage administration and 50 μg/ml in drinking tap water) was initiated 3 h prior to the AOM treatment. The control group for the AOM treatment received saline. Mice for the short term study were sacrificed 6 h or 24 h after AOM treatment.
Immediately after the mice were sacrificed by cervical dislocation, the colon was excised, washed with phosphate-buffered saline, divided into proximal and distal segments, and snap-frozen in liquid N2. Small portions of each lobe of the liver were also removed and frozen in the same manner. Tissue was digested in a lysis buffer consisting of 10 mM Tris-HCl, pH 7.4, 1 mM EDTA, 1% SDS, 5× SSC and 0.2 mg/ml Proteinase K. DNA was extracted by phenol/chloroform/isoamyl alcohol and precipitated with ice-cold ethanol by standard protocols. Samples were then treated with RNase A (50 mg/ml) and DNA was fragmented by sonication. The concentration of DNA was determined by the absorbance at 260 nm.
DNA samples were heat-denatured for 10 min, immediately chilled on ice, and mixed with an equal volume of 2 M ammonium acetate. […] Relative blot intensities were measured by densitometry using a Fluor-S image analyzer (Bio-Rad Laboratories, Inc., Hercules, Calif., United States of America).

[6] = daily administration of the pressor dose (10-50 mg/kg/day), man and animals; cited from earlier work
[7] = system: cytochrome P450 proteins (CYP1A1, 1A2 and 2E1) in liver; experiment: inducibility of CYP1A1, 1A2 and 2E1 in the liver after AOM; type: in vivo, mouse; conditions: AOM 15 mg/kg bolus I.P.
Excerpt: Anti-rabbit anti-human CYP1A1/1A2 and CYP2E1 antisera were obtained from Dr. F. P. Guengerich, Department of Biochemistry, Vanderbilt University. See Soucek et al., (1995) Biochem. 34:16013-16021; Shimada et al., (1992) Mol. Pharmacol. 41:856-864. The cross-reactivities of these antibodies to mouse CYP1A1/1A2 and 2E1 have been characterized.
The inducibilities of CYP1A1, 1A2 and 2E1 in the liver were exaimed.

[8] = system: colon tumors; experiment: AOM-induced colon tumors in mouse strain crossbred from 129/Ola and C57BL/6J (Table 3); type: in vivo; conditions: 23 weeks; for Body Weight / Colon Tumors Multiplicity = average number of tumors/mouse / Colon Tumors Prevalence (%) = percent of tumor-bearing mice / Colon Tumors Total Number: AOM 10 mg/kg I.P. 4 consecutive weeks
Method: The colons and livers were macroscopically examined. […] Tumor size was measured with a caliper. […] In addition, the size of the tumors in wild type mice was large (over 55% of tumors 22 mm^3). The tumors were predominantly observed in the lower half of the descending colon.

[9] = system: colon tumors; experiment: AOM-induced colon tumors in F2 mice crossbred with SWR/J (Table 4); type: in vivo, mouse; conditions: AOM 10 mg/kg I.P. 4 consecutive weeks, 26 weeks
Method: . […] The colons and livers were macroscopically examined. […] Tumor size was measured with a caliper.
In Example 2, clear-cut results were obtained that the AT2 receptor is involved in AOM-induced colon cancer. A concern was that this might be true only in the mouse strain crossbred from 129/OIa and C57BL/6J mouse strains. In order to overcome this problem, the AT2-KO mice in this crossbred strain were back-crossed with SWR/J mice, whose susceptibility to AOM is established. During the course of back-crossing, similar experiments were performed as described in Example 1, using F2 male wild and AT2-KO mice.

[10] = molecular target: T2, mouse angiotensin II type 2 receptor (mouse, UniProt P35374 1-363); experiment: radioligand-receptor binding on mouse liver and colon plasma membranes
T2 construct: Native receptor in mouse tissue (liver and colon plasma membranes, liver nuclei), not a recombinant construct; also called AT2 receptor; AT2
T2 sequence: T1 sequence (P35374 1-363)

[11] = AOM 10 mg/kg bolus I.P., both wild type and AT2-null mice

effect on AOM-induced CYP2E1 downregulation in the liver ([1]; wild type mice, pretreatment 15 mg/kg/12 h by gavage and 0.35 mg/kg/h in drinking water, AOM 10 mg/kg I.P., 24 h): significantly attenuated
Molecule: Cc1cc(Cn2cnc3c2C[C@@H](C(=O)O)N(C(=O)C(c2ccccc2)c2ccccc2)C3)ccc1N(C)C [PD123319]
adverse effects [2]: does not show any adverse effects
IC50 [3]: 0.01 µM
colon polyp or adenocarcinoma number as determined by endoscopy ([4]; 4-8 week course, oral administration): significant reduction
remission of adenocarcinoma (tumor number and/or volume) ([4]; 12-20 week course of therapy, individuals diagnosed with at least one adenocarcinoma): greater than 79 % of individuals
effect on AOM-induced increase in the colonic O^6-methylguanine level ([5]; wild type mice, 15 mg/kg/12h by gavage and 0.35 mg/kg/h in drinking water, 24 h after AOM 10 mg/kg): markedly attenuated

Molecule: CCCCc1nc(Cl)c(CO)n1Cc1ccc(-c2ccccc2-c2nn[nH]n2)cc1 [losartan]
side effects [6]: no serious side effects

effect on hepatic cytochrome P450 levels ([7]; AT2-KO mice, 24 h after injection): decreased substantially
effect on levels of cytochrome P450 proteins in liver ([7]; wild type mouse liver): significantly increased
effect on CYP2E1 protein expression in liver [1, 11]: significantly downregulated
Colon Tumors Multiplicity = average number of tumors/mouse ([8]; AT2-KO mice): 0.11
Colon Tumors Prevalence (%) = percent of tumor-bearing mice ([8]; AT2-KO mice): 11.1%
Colon Tumors Total Number ([8]; AT2-KO mice): 1
Colon Tumors Multiplicity = average number of tumors/mouse ([8]; Control (wild type) mice): 7.38
Colon Tumors Prevalence (%) = percent of tumor-bearing mice ([8]; Control (wild type) mice): 100%
Colon Tumors Total Number ([8]; Control (wild type) mice): 59
share of tumors 22 mm^3 (large tumors) ([8]; wild type mice, AOM 10 mg/kg I.P. 4 weekly): over 55%
Colon Tumors Multiplicity ([9]; AT2-KO F2 male mice): 6.3
Colon Tumors Prevalence (%) ([9]; AT2-KO F2 male mice): 100.0%
Colon Tumors Total Number ([9]; AT2-KO F2 male mice): 50
Colon Tumors Volume (mm^3) = total tumor volume/number of tumors ([9]; AT2-KO F2 male mice): 19.8 ± 3.0 mm^3
Colon Tumors Multiplicity ([9]; Control (wild) F2 male mice): 12.0
Colon Tumors Prevalence (%) ([9]; Control (wild) F2 male mice): 100.0%
Colon Tumors Total Number ([9]; Control (wild) F2 male mice): 96
Colon Tumors Volume (mm^3) = total tumor volume/number of tumors ([9]; Control (wild) F2 male mice): 36.8 ± 3.2* mm^3
effect on colonic O^6-methylguanine levels [5, 11]: time-dependently increased
Molecule: CN=[N+](C)[O-] [AOM, azoxymethane]
Body Weight ([8]; AT2-KO mice): 36.5 ± 1.6 g
Body Weight ([8]; Control (wild type) mice): 36.5 ± 4.3 g

binding result [10]: binds
Molecule: XRVYIHPI (sarcosine at position 1 in place of Asp; 125I label, X stands for sarcosine) [[^125I]Sar^1·Ile^8·Ang II]

Reference: patent publication US20030083339A1, “Compositions and methods for treating colorectal polyps and cancer” (priority 2001, published 2003)
